These compounds were tested against truncated CRBN (319-427) (Homo sapiens (Human), UniProt Q96SW2) (assay: Fluorescence binding assay (fluorescence quenching), affinity to E3-CEREBLON (CRBN)-ubiquitin ligase). Settings: ubiquitination moiety and linker, pH 6.5.
Method: Fluorescence quenching end point measurements were performed in black polystyrene 384-plates on Tecan Safire monochromator reader with the following settings: excitation 280 nm; excitation bandwidth 10.0 nm; emission collection 340 nm; emission bandwidth 20.0 nm; high sensitivity flash mode; integration time 40 μS; delay 0 μm. All measurements were done in duplicates; GraphPad Prism 5.03 was used for data evaluation, curve fitting, plotting and determination of IC50 values.
Serial dilutions of each tested ligands were mixed with truncated CRBN (319-427) to a final volume of 25 μL in the assay buffer (20 mM sodium phosphate buffer, pH 6.5, with 150 mM sodium chloride). The final concentration of CRBN in all assay will be 5-10 μM with DMSO level at 4%. A control lanes were prepared with only tested ligands without the addition of CRBN, top up with assay buffer to 25 μL. Plates were incubated for 5 minutes and analyzed using the monochromator plate reader.
IC50 is the compound concentration that causes 50% quenching of the desired activity.

Chain of truncated CRBN (319-427) (Q96SW2 319-427): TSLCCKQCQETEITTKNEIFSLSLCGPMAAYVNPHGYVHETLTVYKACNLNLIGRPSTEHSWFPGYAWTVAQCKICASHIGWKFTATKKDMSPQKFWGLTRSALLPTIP

IC50 [µM] | Compound
1 to 100 | [N-]=[N+]=NCCOCCOCCOCCNc1ccc(-c2ccc3c(c2)CC(=O)N3)cn1 [Compound 092, 5-(6-((2-(2-(2-(2-azidoethoxy)ethoxy)ethoxy)ethyl)amino)pyridin-3-yl)indolin-2-one]
100 to 300 | [N-]=[N+]=NCCOCCOCCOCCNc1ncccc1-c1ccc2c(c1)CC(=O)N2 [Compound 094, 5-(2-((2-(2-(2-(2-azidoethoxy)ethoxy)ethoxy)ethyl)amino)pyridin-3-yl)indolin-2-one]
> 300 | [N-]=[N+]=NCCOCCOCCOCCNc1ncccc1-c1ccc2c(c1)NC(=O)C2 [Compound 095, 6-(2-((2-(2-(2-(2-azidoethoxy)ethoxy)ethoxy)ethyl)amino)pyridin-3-yl)indolin-2-one]
100 to 300 | [N-]=[N+]=NCCOCCOCCOCCNc1cc(-c2ccc3c(c2)CC(=O)N3)ccn1 [Compound 088, 5-(2-((2-(2-(2-(2-azidoethoxy)ethoxy)ethoxy)ethyl)amino)pyridin-4-yl)indolin-2-one]
> 300 | NCCCCCNc1cc(-c2ccc3c(c2)NC(=O)C3)ccn1 [Compound 087, 6-(2-((5-aminopentyl)amino)pyridin-4-yl)indolin-2-one]

Same assay, conditions: ubiquitination moiety, pH 6.5

IC50 [µM] | Compound
> 300 | CN1C(=O)Cc2cc(C(=O)N3CCCCC3)ccc21 [Compound 083, 1-methyl-5-(piperidine-1-carbonyl)indolin-2-one]
> 300 | O=C1Cc2ccc(C(=O)N3CCCCC3)cc2N1 [Compound 029, 6-(piperidine-1-carbonyl)indolin-2-one]
100 to 300 | O=C1Cc2cc(-c3ccncc3)ccc2N1 [Compound 039, 5-(pyridin-4-yl)indolin-2-one]
> 300 | Cc1cnccc1-c1ccc2c(c1)NC(=O)C2 [Compound 006, 6-(3-methylpyridin-4-yl)indolin-2-one]
100 to 300 | O=C1Cc2cnc(-c3ccncc3)cc2N1 [Compound 074, 6-(pyridin-4-yl)-1,3-dihydro-2H-pyrrolo[3,2-c]pyridin-2-one]
1 to 100 | CNC(=O)c1ccc(-c2ccc3c(c2)NC(=O)C3)cc1 [Compound 022, N-methyl-4-(2-oxoindolin-6-yl)benzamide]
> 300 | O=C1Cc2ccc(-c3ccnc(Cl)c3)cc2N1 [Compound 009, 6-(2-chloropyridin-4-yl)indolin-2-one]
> 300 | O=C1Cc2ccc(-c3ccc(C(=O)N4CCNCC4)cc3)cc2N1 [Compound 020, 6-(4-(piperazine-1-carbonyl)phenyl)indolin-2-one]
> 300 | O=C1Cc2ccc(-c3cccc(CN4CCNCC4)c3)cc2N1 [Compound 019, 6-(3-(piperazin-1-ylmethyl)phenyl)indolin-2-one]
> 300 | O=C1Cc2ccc(-c3ccc(F)nc3)cc2N1 [Compound 070, 6-(6-fluoropyridin-3-yl)indolin-2-one]
100 to 300 | O=C1Cc2ccc(NC(=O)c3ccncc3)cc2N1 [Compound 032, N-(2-oxoindolin-6-yl)isonicotinamide]
> 300 | O=C1Cc2ccc(-c3ccc(N4CCCCC4)nc3)cc2N1 [Compound 064, 6-(6-(piperidin-1-yl)pyridin-3-yl)indolin-2-one]
> 300 | CC1(C)C(=O)Nc2cc(-c3ccncc3)ccc21 [Compound 062, 3,3-dimethyl-6-(pyridin-4-yl)indolin-2-one]
> 300 | Cn1cc(-c2ccc3c(c2)NC(=O)C3)cn1 [Compound 015, 6-(1-methyl-1H-pyrazol-4-yl)indolin-2-one]
> 300 | O=C1Cc2ccc(C(=O)NC3CCCCC3)cc2N1 [Compound 025, N-cyclohexyl-2-oxoindoline-6-carboxamide]
> 300 | CN1CCN(C(=O)c2ccc3c(c2)CC(=O)N3)CC1 [Compound 067, 5-(4-methylpiperazine-1-carbonyl)indolin-2-one]
1 to 100 | CC(=O)Nc1cc(C)c(-c2ccc3c(c2)CC(=O)N3)cn1 [Compound 050, N-(4-methyl-5-(2-oxoindolin-5-yl)pyridin-2-yl)acetamide]
> 300 | O=C1Cc2ccc(OC3CCNCC3)cc2N1 [Compound 034, 6-(piperidin-4-yloxy)indolin-2-one]
100 to 300 | O=C1Cc2cc(-c3cccnc3)ccc2N1 [Compound 056, 5-(pyridin-3-yl)indolin-2-one]
> 300 | O=C1Cc2ccc(Oc3ccnc(Cl)n3)cc2N1 [Compound 035, 6-((2-chloropyrimidin-4-yl)oxy)indolin-2-one]
> 300 | NC1CCCN(C(=O)c2ccc3c(c2)NC(=O)C3)C1 (centres unmarked) [Compound 080, 6-(3-aminopiperidine-1-carbonyl)indolin-2-one]
> 300 | NC1CCCN(C(=O)c2ccc3c(c2)CC(=O)N3)C1 (centres unmarked) [Compound 081, 5-(3-aminopiperidine-1-carbonyl)indolin-2-one]
100 to 300 | O=C1Cc2ccc(NC(=O)c3cccnc3)cc2N1 [Compound 071, N-(2-oxoindolin-6-yl)nicotinamide]
100 to 300 | CC1C(=O)Nc2cc(-c3ccncc3)ccc21 (centres unmarked) [Compound 007, 3-methyl-6-(pyridin-4-yl)indolin-2-one]
100 to 300 | Cc1nc(N)ccc1-c1ccc2c(c1)CC(=O)N2 [Compound 044, 5-(6-amino-2-methylpyridin-3-yl)indolin-2-one]
> 300 | CC(C)(C)OC(=O)N1CCN(C(=O)c2ccc(-c3ccc4c(c3)CC(=O)N4)cc2)CC1 [Compound 052, tert-butyl 4-(4-(2-oxoindolin-5-yl)benzoyl)piperazine-1-carboxylate]

IC50 [µM] | Compound
> 300 | O=C1Cc2ncc(-c3ccncc3)cc2N1 [Compound 075, 6-(pyridin-4-yl)-1,3-dihydro-2H-pyrrolo[3,2-b]pyridin-2-one]
> 300 | O=C1Cc2cc(Cl)c(C(=O)N3CCCCC3)cc2N1 [Compound 030, 5-chloro-6-(piperidine-1-carbonyl)indolin-2-one]
100 to 300 | CC(=O)Nc1ncc(-c2ccc3c(c2)CC(=O)N3)cc1C [Compound 048, N-(3-methyl-5-(2-oxoindolin-5-yl)pyridin-2-yl)acetamide]
100 to 300 | CCOC(=O)c1cc(-c2ccc3c(c2)NC(=O)C3)ccn1 [Compound 014, ethyl 4-(2-oxoindolin-6-yl)picolinate]
100 to 300 | O=C1Cc2ccc(-c3ccncc3)cc2N1 [Compound 002, 6-(pyridin-4-yl)indolin-2-one]
> 300 | CN1CCC(NC(=O)c2ccc3c(c2)NC(=O)C3)CC1 [Compound 027, N-(1-methylpiperidin-4-yl)-2-oxoindoline-6-carboxamide]
> 300 | O=C1Cc2ccc(C(=O)NCc3cccnc3)cc2N1 [Compound 033, 2-oxo-N-(pyridin-3-ylmethyl)indoline-6-carboxamide]
> 300 | O=C1Cc2ccc(-c3ccc(N4CCNCC4)nc3)cc2N1 [Compound 065, 6-(6-(piperazin-1-yl)pyridin-3-yl)indolin-2-one]
> 300 | O=C1Cc2cc(-c3ccccc3)ccc2N1 [Compound 051, 5-phenylindolin-2-one]
> 300 | O=C1Cc2ccc(-c3ccc4[nH]ccc4c3)cc2N1 [Compound 016, 6-(1H-indol-5-yl)indolin-2-one]
100 to 300 | O=C1Cc2cc(C(=O)N3CCC(c4ccccc4)CC3)ccc2N1 [Compound 068, 5-(4-phenylpiperidine-1-carbonyl)indolin-2-one]
> 300 | CN1C(=O)Cc2ccc(-c3ccncc3)cc21 [Compound 008, 1-methyl-6-(pyridin-4-yl)indolin-2-one]
> 300 | O=C1Cc2ccc(-c3cnc4[nH]ccc4c3)cc2N1 [Compound 017, 6-(1H-pyrrolo[2,3-b]pyridin-5-yl)indolin-2-one]
1 to 100 | O=C1Cc2ccc(-c3ccc(CN4CCNCC4)cc3)cc2N1 [Compound 018, 6-(4-(piperazin-1-ylmethyl)phenyl)indolin-2-one]
> 300 | COC(=O)c1ccccc1-c1ccc2c(c1)NC(=O)C2 [Compound 079, methyl 2-(2-oxoindolin-6-yl)benzoate]
> 300 | O=C1Cc2cc(-c3ccncc3)ncc2N1 [Compound 073, 5-(pyridin-4-yl)-1,3-dihydro-2H-pyrrolo[2,3-c]pyridin-2-one]
> 300 | O=C1Cc2ccc(-c3cccc(C(=O)N4CCNCC4)c3)cc2N1 [Compound 021, 6-(3-(piperazine-1-carbonyl)phenyl)indolin-2-one]
> 300 | N-(1-acetylpiperidin-4-yl)-2-oxoindoline-6-carboxamide [Compound 026]
100 to 300 | O=C1Cc2cc(NC(=O)c3cccnc3)ccc2N1 [Compound 072, N-(2-oxoindolin-5-yl)nicotinamide]
> 300 | COc1cc(-c2ccc3c(c2)CC(=O)N3)ccn1 [Compound 041, 5-(2-methoxypyridin-4-yl)indolin-2-one]
> 300 | CCOC(=O)c1cc(-c2ccc3c(c2)NC(=O)C3)ccn1 [Compound 066, ethyl 4-(2-oxoindolin-6-yl)picolinate]
1 to 100 | CNC(=O)c1cccc(-c2ccc3c(c2)NC(=O)C3)c1 [Compound 023, N-methyl-3-(2-oxoindolin-6-yl)benzamide]
100 to 300 | O=C1Cc2ccc(C(=O)Nc3ccncc3)cc2N1 [Compound 031, 2-oxo-N-(pyridin-4-yl)indoline-6-carboxamide]
> 300 | COC(=O)COc1ccc2c(c1)NC(=O)C2 [Compound 036, methyl 2-((2-oxoindolin-6-yl)oxy)acetate]
100 to 300 | O=C1Cc2ccc(-c3ccccn3)cc2N1 [Compound 004, 6-(pyridin-2-yl)indolin-2-one]
